Reference: US5266591A, “Ethanolamine benzoate compounds” (Adir et Compagnie, priority 1991, dated 1993)
pIC50: −log10 of the molar value. Like-named read-outs stand apart in the source and are kept apart here.

Key:
[1] = system: LDL (low-density lipoproteins); assay: In vitro LDL oxidation by monocytes; type: cell-based; settings: for In vitro LDL oxidation by monocytes, activity: at 10^-4 M
Experimental: (§1) A comparative study between the product of Example 1 and the reference substances (benfluorex, dimethyl biguanide) with respect to in vitro LDL oxidation was carried out.

esters of cholesterol = assay: Incorporation of oleate in the esters of cholesterol; type: cell-based; settings: for inhibition at 10 µM: read-out: Incorporation of oleate in the esters of cholesterol
[2] = system: 52-week-old male SDCD rats; assay: Chronic treatment per os of 52-week-old male SDCD rats (weight, insulinaemia, glycaemia, glucose tolerance, lipids); type: in vivo, rat; settings: 14 days; for % weight change: 52-week-old male SDCD rats; for Basal insulinaemia % change / Cholesterol % change / Glucose tolerance K 10^-2 % change / Glycaemia % change / Triglyceride % change: vs control
Experimental: A. Study of the Effect of a Chronic Treatment Administered Per OS to 52-Week-Old Male SDCD Rats The tests are carried out on rats that have weight anomalies associated with hyperinsulism and hyperglyceridaemia. on the one hand the effect of a prolonged treatment with the product of Example 1 and the reference substances on those anomalies, and In this experiment, adult male SPRAGUE DAWLEY rats were used in groups of 5 to 12 animals. […]
a reduction in glucose tolerance, an increase in basal insulinaemia, and an increase in plasma lipids.
The housing (from 9 to 52 weeks) of these rats was effected in a chamber at a temperature regulated at from 21° to 22° C. which was subjected to a fixed cycle of light (from 7.30 to 19.30 hours) and darkness (from 19.30 to 7.30 hours). Their food consisted of a maintenance diet (UAR A 03); water and food were supplied "ad libitum", with the exception of the night-fasting preceding the tests, when the food was removed.
9 days before the beginning of the experiment (d-9), the rats are divided into groups by randomisation based on weight.
5 days before the beginning of the experiment (d-5) the rats are conditioned by administering a gum solution.
The first day of the experiment (d1), the products to be tested are administered to the rats at different doses twice per day. More precisely, the products are administered suspended in the gum between 9.00 and 10.00 hours and 16.00 and 17.00 hours for 14 days. The treated animals are weighed daily.
On day 15 the rats (fasted for 18 hours) are sacrificed by decapitation. The blood is immediately collected in a cupule. An amount (50 μl ) is transferred into 500 μl of uranyl acetate for determining the glycaemia. An amount of 3 ml is transferred into a tube containing a solution of heparin (30 μl per 1 ml of whole blood) and centrifuged to separate the plasma. Another amount of 300 μl is transferred to a tube containing 15 μl of a solution of EDTA/NaF for determining the lactates.

[3] = system: LDL (low-density lipoproteins); assay: In vitro LDL oxidation by copper; type: biochemical
Experimental: as §1

conscious dogs = assay: Hypotensive effect in conscious dogs (sphygmomanometer on the tail); type: in vivo; settings: conscious dog, 5 mg/kg p.o., n = 4
Experimental: The arterial pressure was measured by external pressure band (sphygmomanometer) on the tail of the dog, before and after treatment with the product of Example 1 at a dose of 5 mg/kg p.o..

For `CN(C)C(=N)NC(=N)N` [Dimethyl biguanide], the “In vitro LDL oxidation by monocytes, activity” value [1] was “inactive” and the “Incorporation of oleate in the esters of cholesterol” value (esters of cholesterol; at 10^-5 M) was “inactive”.

`CC(Cc1cccc(C(F)(F)F)c1)NCCOC(=O)c1ccccc1` (stereo not shown) [Benfluorex] was tested, and the “% weight change” value ([2]; 1 mg/kg x2 per day p.o.) was -2%, the “Basal insulinaemia % change” value ([2]; 1 mg/kg x2 per day p.o.) was -10% and the Cholesterol % change ([2]; 1 mg/kg x2 per day p.o.) was -20%. The “Glucose tolerance K 10^-2 % change” value ([2]; 1 mg/kg x2 per day p.o.) was “+30%”, the Glycaemia % change ([2]; 1 mg/kg x2 per day p.o.) was -10% and the Triglyceride % change ([2]; 1 mg/kg x2 per day p.o.) was -43%. For the same compound, the “% weight change” value ([2]; 2.5 mg/kg x2 per day p.o.) was -6%, the “Basal insulinaemia % change” value ([2]; 2.5 mg/kg x2 per day p.o.) was -16% and the Cholesterol % change ([2]; 2.5 mg/kg x2 per day p.o.) was -30%. For the same compound, the “Glucose tolerance K 10^-2 % change” value ([2]; 2.5 mg/kg x2 per day p.o.) was “+25%”, the Glycaemia % change ([2]; 2.5 mg/kg x2 per day p.o.) was -12% and the Triglyceride % change ([2]; 2.5 mg/kg x2 per day p.o.) was -44%. The “In vitro LDL oxidation by copper, activity” value ([3]; at 10^-4 M) was “inactive”, the “In vitro LDL oxidation by monocytes, activity” value [1] was “inactive” and the inhibition at 10 µM (esters of cholesterol; at 10^-5 M) was 30%.

In the case of `C[C@@H](Cc1cccc(C(F)(F)F)c1)NCCOC(=O)c1ccc(CCNC(=O)CC(c2ccccc2)c2ccccc2)cc1` [Example 1, (S)-1-(m-trifluoromethylphenyl)-2-{β-{4-[2-(N-(3,3-diphenylpropionyl)amino)ethyl]benzoyloxy}ethylamino}propane], the “% weight change” value ([2]; 1 mg/kg x2 per day p.o.) was -1.4%, the “Basal insulinaemia % change” value ([2]; 1 mg/kg x2 per day p.o.) was -15% and the Cholesterol % change ([2]; 1 mg/kg x2 per day p.o.) was 0%. For the same compound, the “Glucose tolerance K 10^-2 % change” value ([2]; 1 mg/kg x2 per day p.o.) was “+23%”, the Glycaemia % change ([2]; 1 mg/kg x2 per day p.o.) was “+8%” and the Triglyceride % change ([2]; 1 mg/kg x2 per day p.o.) was -10%. The “% weight change” value ([2]; 2.5 mg/kg x2 per day p.o.) was -3%, the “Basal insulinaemia % change” value ([2]; 2.5 mg/kg x2 per day p.o.) was -26% and the Cholesterol % change ([2]; 2.5 mg/kg x2 per day p.o.) was 0%. For the same compound, the “Glucose tolerance K 10^-2 % change” value ([2]; 2.5 mg/kg x2 per day p.o.) was “+30%”, the Glycaemia % change ([2]; 2.5 mg/kg x2 per day p.o.) was 0% and the Triglyceride % change ([2]; 2.5 mg/kg x2 per day p.o.) was -20%. For the same compound, the pIC50 [3] was 4.30, the pIC50 ([1]; read-out: In vitro LDL oxidation by monocytes, IC50) was 4.30 and the inhibition at 10 µM (esters of cholesterol) was 70%. For the same compound, the “Decrease in arterial pressure, diastolic AP” value (conscious dogs) was -20 to -27 mmHg and the “Decrease in arterial pressure, systolic AP” value (conscious dogs) was -15 to -22 mmHg.
